Source: ChEMBL document CHEMBL1142399, “Water-soluble pleuromutilin derivative with excellent in vitro and in vivo antibacterial activity against gram-positive pathogens” (J Med Chem, 2008)
Converted amounts (≈) assume the structure as drawn.

Legend:
[1] = system: Haemophilus influenzae; assay: Antibacterial activity against Haemophilus influenzae TH13 by broth microdilution method; type: functional
[2] = system: Staphylococcus aureus; assay: microbe, parasite or virus in culture
[3] = system: Enterococcus faecalis; assay: microbe, parasite or virus in culture; conditions: ATCC 29212
[4] = system: Staphylococcus aureus; assay: microbe, parasite or virus in culture; conditions: KMP9
[5] = system: Enterococcus faecium; assay: microbe, parasite or virus in culture; conditions: ATCC 19434
[6] = system: Staphylococcus aureus; assay: microbe, parasite or virus in culture; conditions: Smith
[7] = system: Staphylococcus aureus; assay: microbe, parasite or virus in culture; remark: listed apart in the source
[8] = system: Staphylococcus epidermidis; assay: Antibacterial activity against Staphylococcus epidermidis ATCC 12228 by broth microdilution method; type: functional
[9] = system: Streptococcus pneumoniae; assay: microbe, parasite or virus in culture; conditions: ATCC 49619
[10] = system: Streptococcus pyogenes; assay: Antibacterial activity against Streptococcus pyogenes ATCC 12344 by broth microdilution method; type: functional
[11] = system: Moraxella catarrhalis; assay: Antibacterial activity against Moraxella catarrhalis K1209 by broth microdilution method; type: functional
[12] = system: Staphylococcus aureus; assay: Antibacterial activity against methicillin-resistant Staphylococcus aureus KT0116 in mouse dosed iv 1 hr after infection; type: functional
[13] = system: Enterococcus faecium; assay: Antibacterial activity against vancomycin-resistant Enterococcus faecium KU1778 clinical isolate by broth microdilution method; type: functional
[14] = system: Streptococcus pneumoniae; assay: Antibacterial activity against penicillin-susceptible Streptococcus pneumoniae ATCC 49619 in mouse dosed iv 1 hr after infection; type: functional; conditions: ATCC 49619, iv
[15] = system: Staphylococcus aureus; assay: Antibacterial activity against methicillin-susceptible Staphylococcus aureus Smith in mouse dosed iv 1 hr after infection; type: functional
[16] = system: Streptococcus pneumoniae; assay: Antibacterial activity against penicillin-resistant Streptococcus pneumoniae KT2524 in mouse dosed iv 1 hr after infection; type: functional
[17] = system: Streptococcus pneumoniae; assay: microbe, parasite or virus in culture
[18] = system: Mycoplasmoides pneumoniae; assay: Antibacterial activity against Mycoplasma pneumoniae Mac by broth microdilution method; type: functional
[19] = system: Staphylococcus saccharolyticus; assay: Antibacterial activity against Staphylococcus saccharolyticus GAI 5520 by broth microdilution method; type: functional
[20] = system: Peptoniphilus asaccharolyticus; assay: Antibacterial activity against Peptostreptococcus asaccharolyticus GAI 5534 by broth microdilution method; type: functional
[21] = system: Finegoldia magna; assay: Antibacterial activity against Peptostreptococcus magnus GAI 5528 by broth microdilution method; type: functional
[22] = system: Cutibacterium acnes; assay: Antibacterial activity against Propionibacterium acnes GAI 5568 by broth microdilution method; type: functional
[23] = system: Clostridium perfringens; assay: Antibacterial activity against Clostridium perfringens GAI 5526 by broth microdilution method; type: functional
[24] = system: Atopobium parvulum; assay: Antibacterial activity against Atopobium parvulum GAI 5542 by broth microdilution method; type: functional; conditions: Lancefieldella parvula
[25] = system: Peptostreptococcus anaerobius; assay: Antibacterial activity against Peptostreptococcus anaerobius GAI 5506 by broth microdilution method; type: functional
[26] = system: Propionibacterium granulosum; assay: Antibacterial activity against Propionibacterium granulosum GAI 7414 by broth microdilution method; type: functional; conditions: Cutibacterium granulosum
[27] = system: Mycoplasmoides pneumoniae; assay: Antibacterial activity against Mycoplasma pneumoniae FH Liu by broth microdilution method; type: functional
[28] = system: Streptococcus intermedius; assay: Antibacterial activity against Streptococcus intermedius GAI 7416 by broth microdilution method; type: functional
[29] = system: Staphylococcus aureus; assay: Antibacterial activity against methicillin-susceptible Staphylococcus aureus Smith in po dosed mouse twice daily; type: functional
[30] = system: Streptococcus pneumoniae; assay: Antibacterial activity against penicillin-susceptible Streptococcus pneumoniae ATCC 49619 in mouse dosed twice iv 1 hr and 4 hrs after infection; type: functional; conditions: ATCC 49619, iv
[31] = system: Staphylococcus aureus; assay: Antibacterial activity against methicillin-resistant Staphylococcus aureus KT0116 in mouse dosed twice iv 1 hr and 4 hrs after infection; type: functional
[32] = system: Streptococcus pneumoniae; assay: Antibacterial activity against penicillin-resistant Streptococcus pneumoniae KT2524 in mouse dosed twice iv 1 hr and 4 hrs after infection; type: functional
[33] = system: Staphylococcus aureus; assay: Antibacterial activity against methicillin-susceptible Staphylococcus aureus Smith in mouse dosed twice iv 1 hr and 4 hrs after infection; type: functional

| Structure (SMILES) | MIC [1] [µg/mL] | MIC [2] [µg/mL] | MIC [3] [µg/mL] | MIC [4] [µg/mL] | MIC [5] [µg/mL] | MIC [6] [µg/mL] | MIC [7] [µg/mL] | MIC [8] [µg/mL] | MIC [9] [µg/mL] | MIC [10] [µg/mL] | MIC [11] [µg/mL] | MIC [13] [µg/mL] | MIC [17] [µg/mL] | MIC [19] [µg/mL] | MIC [20] [µg/mL] | MIC [21] [µg/mL] | MIC [22] [µg/mL] | MIC [23] [µg/mL] | MIC [24] [µg/mL] | MIC [25] [µg/mL] | also measured |
| --- | --- | --- | --- | --- | --- | --- | --- | --- | --- | --- | --- | --- | --- | --- | --- | --- | --- | --- | --- | --- | --- |
| CC[C@H]1OC(=O)[C@H](C)[C@@H](O[C@H]2C[C@@](C)(OC)[C@@H](O)[C@H](C)O2)[C@H](C)[C@@H](O[C@@H]2O[C@H](C)C[C@H](N(C)C)[C@H]2O)[C@](C)(O)C[C@@H](C)C(=O)[C@H](C)[C@@H](O)[C@]1(C)O [ERYTHROMYCIN] | 2 (≈ 2.73 µM) | > 128 | 2 (≈ 2.73 µM) | 32 (≈ 43.6 µM) | 1 (≈ 1.36 µM) | 0.125 (≈ 0.17 µM) | 0.063 (≈ 0.0858 µM) | 0.063 (≈ 0.0858 µM) | 0.016 (≈ 0.0218 µM) | 0.008 (≈ 0.0109 µM) | 0.032 (≈ 0.0436 µM) | > 128 | > 128 | – | – | – | – | – | – | – | ED50 [12]: > 100 mg/kg; ED50 [14]: 1.48 mg/kg; ED50 [15]: 2.55 mg/kg; ED50 [16]: > 100 mg/kg |
| CC[C@H]1OC(=O)[C@H](C)[C@@H](O[C@H]2C[C@@](C)(OC)[C@@H](O)[C@H](C)O2)[C@H](C)[C@@H](O[C@@H]2O[C@H](C)C[C@H](N(C)C)[C@H]2O)[C@](C)(OC)C[C@@H](C)C(=O)[C@H](C)[C@@H](O)[C@]1(C)O [CLARITHROMYCIN] | – | – | – | – | – | – | – | – | – | – | – | – | – | 0.063 (≈ 0.0842 µM) | > 128 | 2 (≈ 2.67 µM) | < 0.004 | 1 (≈ 1.34 µM) | < 0.004 | < 0.004 | MIC [18]: 0.016 µg/mL (≈ 0.0214 µM); MIC [26]: < 0.004 µg/mL; MIC [27]: 0.016 µg/mL (≈ 0.0214 µM); MIC [28]: < 0.004 µg/mL |
| CC1(C)S[C@@H]2[C@H](NC(=O)[C@H](N)c3ccccc3)C(=O)N2[C@H]1C(=O)O [AMPICILLIN] | – | – | – | – | – | – | – | – | – | – | – | – | – | 0.008 (≈ 0.0229 µM) | 0.25 (≈ 0.715 µM) | 0.25 (≈ 0.715 µM) | 0.125 (≈ 0.358 µM) | 0.063 (≈ 0.18 µM) | 0.125 (≈ 0.358 µM) | 0.125 (≈ 0.358 µM) | MIC [26]: 0.063 µg/mL (≈ 0.18 µM); MIC [28]: 0.125 µg/mL (≈ 0.358 µM) |
| CC[C@]1(C)C[C@@H](OC(=O)CSc2nnc(N)[nH]2)[C@]2(C)[C@H](C)CC[C@]3(CCC(=O)[C@H]32)[C@@H](C)[C@@H]1O [AZAMULIN] | 0.5 (≈ 1.04 µM) | 1 (≈ 2.09 µM) | 128 (≈ 267 µM) | 2 (≈ 4.18 µM) | 0.5 (≈ 1.04 µM) | 0.5 (≈ 1.04 µM) | 0.25 (≈ 0.522 µM) | 0.25 (≈ 0.522 µM) | 0.5 (≈ 1.04 µM) | 0.25 (≈ 0.522 µM) | 0.032 (≈ 0.0669 µM) | 0.25 (≈ 0.522 µM) | 0.5 (≈ 1.04 µM) | – | – | – | – | – | – | – | ED50 [29]: 13.3 mg/kg; ED50 [30]: 12.9 mg/kg; ED50 [31]: 5.2 mg/kg; ED50 [32]: 17.7 mg/kg; ED50 [33]: 6.88 mg/kg |
